Activity calls are given as the source filed them. No cut-off for these calls is given here.
Assays:
[1] = biological target: T1, NEDD8/Cullin-1 (Homo sapiens) (UniProt Q13616+Q15843); assay: Inhibition of Nedd8-cullin1 (unknown origin) adduct formation assessed as decrease in cullin1 neddylation at 50 uM preincubated for 10 mins followed by ATP addition and measured after 30 mins by immunoblot analysis; format: protein assay
[2] = biological target: T1, NEDD8/Cullin-1 (Homo sapiens); assay: Inhibition of Nedd8-cullin1 adduct formation in human A549 cells assessed as decrease in cullin1 neddylation at 100 uM incubated for 6 to 12 hrs by Western blot analysis; format: cell-based
[3] = biological target: T1, NEDD8/Cullin-1 (Homo sapiens); assay: Inhibition of Nedd8-cullin1 adduct formation in human A549 cells assessed as decrease in cullin1 neddylation at 60 to 80 uM measured after 6 hrs by Western blot analysis; format: cell-based
Target sequence in this assay (Q13616 whole entry, looked up): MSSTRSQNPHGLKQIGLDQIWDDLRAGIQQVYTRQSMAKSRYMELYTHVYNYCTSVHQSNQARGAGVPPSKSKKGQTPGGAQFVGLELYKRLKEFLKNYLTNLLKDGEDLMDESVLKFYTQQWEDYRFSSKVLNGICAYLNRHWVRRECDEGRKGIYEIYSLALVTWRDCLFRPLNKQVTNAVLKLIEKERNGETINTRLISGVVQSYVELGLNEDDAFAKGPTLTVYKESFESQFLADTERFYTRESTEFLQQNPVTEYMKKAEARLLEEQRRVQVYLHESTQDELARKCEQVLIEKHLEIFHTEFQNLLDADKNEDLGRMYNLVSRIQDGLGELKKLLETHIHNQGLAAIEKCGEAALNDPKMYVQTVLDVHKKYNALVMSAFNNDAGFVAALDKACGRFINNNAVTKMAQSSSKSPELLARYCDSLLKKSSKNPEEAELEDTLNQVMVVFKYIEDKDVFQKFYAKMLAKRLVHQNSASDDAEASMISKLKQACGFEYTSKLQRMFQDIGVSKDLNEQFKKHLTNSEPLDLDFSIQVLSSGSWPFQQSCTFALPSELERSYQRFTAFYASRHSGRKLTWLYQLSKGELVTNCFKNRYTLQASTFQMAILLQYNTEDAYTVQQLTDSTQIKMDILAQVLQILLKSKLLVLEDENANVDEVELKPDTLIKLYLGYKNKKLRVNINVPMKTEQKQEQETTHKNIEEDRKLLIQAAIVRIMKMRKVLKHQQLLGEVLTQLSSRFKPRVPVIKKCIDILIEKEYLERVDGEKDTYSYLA
Target sequence in this assay (Q15843 whole entry, looked up): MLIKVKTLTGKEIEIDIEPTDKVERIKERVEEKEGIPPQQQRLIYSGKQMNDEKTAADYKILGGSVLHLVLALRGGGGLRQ

[4] = biological target: T1, NEDD8/Cullin-1 (Homo sapiens); assay: Inhibition of Nedd8-cullin1 adduct formation in human A549 cells assessed as decrease in cullin1 neddylation at 75 uM measured after 6 hrs by Western blot analysis; format: cell-based
Target sequence in this assay (Q13616 whole entry, looked up): as the sequence (Q13616 whole entry, looked up) above
Target sequence in this assay (Q15843 whole entry, looked up): as the sequence (Q15843 whole entry, looked up) above

[5] = biological target: T1, NEDD8/Cullin-1 (Homo sapiens); assay: Inhibition of Nedd8-cullin1 adduct formation in human A549 cells assessed as decrease in cullin1 neddylation at 50 uM measured after 6 hrs by Western blot analysis; format: cell-based
Target sequence in this assay (Q13616 whole entry, looked up): as the sequence (Q13616 whole entry, looked up) above
Target sequence in this assay (Q15843 whole entry, looked up): as the sequence (Q15843 whole entry, looked up) above

[6] = Toxicity in nude mouse xenografted with human A549 cells assessed as effect on body weight at 30 to 60 mg/kg, ip qd measured every 2 days; format: organism-based; settings: in vivo, 48 h
NEDD8 activating enzyme = biological target: T2, NEDD8 activating enzyme (Homo sapiens, UniProt Q8TBC4); assay: Binding affinity to biotin-labeled GST-tagged NAE (unknown origin) incubated for 1 hr by SPR assay; format: protein-complex assay
T2 sequence (Q8TBC4 whole entry): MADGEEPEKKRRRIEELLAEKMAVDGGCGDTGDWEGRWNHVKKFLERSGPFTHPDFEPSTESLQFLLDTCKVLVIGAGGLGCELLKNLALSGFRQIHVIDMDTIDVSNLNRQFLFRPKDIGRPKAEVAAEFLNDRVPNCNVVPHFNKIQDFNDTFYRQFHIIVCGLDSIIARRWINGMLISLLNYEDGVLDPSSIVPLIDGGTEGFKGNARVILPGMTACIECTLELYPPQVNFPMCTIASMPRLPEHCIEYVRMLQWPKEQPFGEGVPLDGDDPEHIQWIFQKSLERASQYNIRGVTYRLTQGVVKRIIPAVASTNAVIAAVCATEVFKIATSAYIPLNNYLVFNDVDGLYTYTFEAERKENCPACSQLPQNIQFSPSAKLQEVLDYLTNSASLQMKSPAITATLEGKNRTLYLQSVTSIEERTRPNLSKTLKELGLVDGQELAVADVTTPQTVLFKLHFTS
T2 sequence (Q13564 whole entry): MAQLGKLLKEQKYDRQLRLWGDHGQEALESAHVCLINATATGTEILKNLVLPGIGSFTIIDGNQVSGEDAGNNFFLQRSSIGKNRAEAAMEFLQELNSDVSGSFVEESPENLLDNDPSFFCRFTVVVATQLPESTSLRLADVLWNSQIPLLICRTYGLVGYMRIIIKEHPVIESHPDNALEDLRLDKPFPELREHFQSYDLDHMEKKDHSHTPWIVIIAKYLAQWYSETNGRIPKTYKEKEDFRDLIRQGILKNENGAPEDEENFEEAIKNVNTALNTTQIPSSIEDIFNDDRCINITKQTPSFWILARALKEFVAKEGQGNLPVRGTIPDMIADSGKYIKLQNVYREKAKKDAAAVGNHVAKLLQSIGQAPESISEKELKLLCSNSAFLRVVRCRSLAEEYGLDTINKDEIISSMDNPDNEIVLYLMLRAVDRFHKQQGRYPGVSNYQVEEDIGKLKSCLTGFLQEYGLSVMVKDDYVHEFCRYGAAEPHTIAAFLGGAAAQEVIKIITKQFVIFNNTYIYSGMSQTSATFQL

[7] = Toxicity in nude mouse xenografted with human A549 cells assessed as effect on body weight at 60 mg/kg, ip qd measured every 2 days; format: organism-based; settings: in vivo, 48 h
MCF7 [8] = assay: Antiproliferative activity against human MCF7 cells measured after 48 hrs by CCK8 assay; format: functional, cell-based; settings: MCF7, 48 h
Huh-7 [9] = assay: Antiproliferative activity against human HuH7 cells measured after 72 to 96 hrs by CCK8 assay; format: functional, cell-based
T47D [10] = assay: Antiproliferative activity against human T47D cells measured after 72 to 96 hrs by CCK8 assay; format: functional, cell-based
HepG2 [11] = assay: Antiproliferative activity against human HepG2 cells measured after 72 to 96 hrs by CCK8 assay; format: functional, cell-based
MGC-803 [12] = assay: Antiproliferative activity against human MGC803 cells measured after 48 hrs by CCK8 assay; format: functional, cell-based; settings: MGC-803, 48 h
Huh-7 [13] = assay: Antiproliferative activity against human HuH7 cells measured after 48 hrs by CCK8 assay; format: functional, cell-based; settings: Huh-7, 48 h
HepG2 [14] = assay: Antiproliferative activity against human HepG2 cells measured after 48 hrs by CCK8 assay; format: functional, cell-based; settings: HepG2, 48 h
PLC [15] = assay: Antiproliferative activity against human PLC cells measured after 48 hrs by CCK8 assay; format: functional, cell-based
[16] = biological target: T1, NEDD8/Cullin-1 (Homo sapiens); assay: Inhibition of Nedd8-cullin1 (unknown origin) adduct formation assessed as decrease in cullin1 neddylation at 10 uM preincubated for 10 mins followed by ATP addition and measured after 30 mins by immunoblot analysis; format: protein assay
Target sequence in this assay (Q13616 whole entry, looked up): as the sequence (Q13616 whole entry, looked up) above
Target sequence in this assay (Q15843 whole entry, looked up): as the sequence (Q15843 whole entry, looked up) above

MGC-803 [17] = assay: Antiproliferative activity against human MGC803 cells measured after 72 to 96 hrs by CCK8 assay; format: functional, cell-based
NCI-H1299 [18] = assay: Antiproliferative activity against human H1299 cells measured after 72 to 96 hrs by CCK8 assay; format: functional, cell-based
MKN-45 [19] = assay: Antiproliferative activity against human MKN45 cells measured after 48 hrs by CCK8 assay; format: functional, cell-based; settings: MKN-45, 48 h
MKN-45 [20] = assay: Antiproliferative activity against human MKN45 cells measured after 72 to 96 hrs by CCK8 assay; format: functional, cell-based
T47D [21] = assay: Antiproliferative activity against human T47D cells measured after 48 hrs by CCK8 assay; format: functional, cell-based
EKVX [22] = assay: Antiproliferative activity against human EKVX cells measured after 72 to 96 hrs by CCK8 assay; format: functional, cell-based
A549 [23] = assay: Antitumor activity against human A549 cells xenografted in nude mouse assessed as decrease in tumor weight at 60 mg/kg, ip qd measured after 22 days; format: functional, organism-based
EKVX [24] = assay: Antiproliferative activity against human EKVX cells measured after 48 hrs by CCK8 assay; format: functional, cell-based
NCI-H1299 [25] = assay: Antiproliferative activity against human H1299 cells measured after 48 hrs by CCK8 assay; format: functional, cell-based; settings: NCI-H1299, 48 h
PLC [26] = assay: Antiproliferative activity against human PLC cells measured after 72 to 96 hrs by CCK8 assay; format: functional, cell-based
MCF7 [27] = assay: Antiproliferative activity against human MCF7 cells measured after 72 to 96 hrs by CCK8 assay; format: functional, cell-based
A549 [28] = assay: Antitumor activity against human A549 cells xenografted in nude mouse assessed as decrease in tumor size at 60 mg/kg, ip qd measured after 22 days; format: functional, organism-based

## CCCCCCCCCCCCCCCC[n+]1ccccc1
[1]
  inhibition: Active
[2]
  inhibition: inactive

## CN1CCN(CCCN2c3ccccc3Sc3ccc(C(F)(F)F)cc32)CC1
[1]
  inhibition: Active
[2]
  inhibition: inactive

## Clc1ccc(CCNC2CCN(Cc3ccccc3)CC2)c(Cl)c1
[3]
  inhibition: Active

## O=C1c2c(O)ccc(O)c2C(=O)c2c(NCCNCCO)ccc(NCCNCCO)c21
[4]
  inhibition: Active
[5]
  inhibition: inactive

## CCOc1nc2cccc(C(=O)OC(C)OC(=O)OC3CCCCC3)c2n1Cc1ccc(-c2ccccc2-c2nnn[nH]2)cc1 (stereo not drawn) [CANDESARTAN CILEXETIL]
[6]
  Activity: Non-Toxic
NEDD8 activating enzyme
  Kd: 195000 nM

## NS(=O)(=O)OC[C@@H]1C[C@@H](n2ccc3c(N[C@H]4CCc5ccccc54)ncnc32)C[C@@H]1O [PEVONEDISTAT]
[7]
  Activity: Non-Toxic
MCF7 [8]
  IC50: > 10000 nM
Huh-7 [9]
  IC50: 300 to 1200 nM
T47D [10]
  IC50: 300 to 1200 nM
HepG2 [11]
  IC50: 300 to 1200 nM
MGC-803 [12]
  IC50: > 10000 nM
Huh-7 [13]
  IC50: > 10000 nM
HepG2 [14]
  IC50: > 10000 nM
PLC [15]
  IC50: > 10000 nM
[16]
  inhibition: Active
MGC-803 [17]
  IC50: 300 to 1200 nM
NCI-H1299 [18]
  IC50: 300 to 1200 nM
MKN-45 [19]
  IC50: > 10000 nM
MKN-45 [20]
  IC50: 300 to 1200 nM
T47D [21]
  IC50: > 10000 nM
EKVX [22]
  IC50: 300 to 1200 nM
A549 [23]
  Activity: Active
EKVX [24]
  IC50: > 10000 nM
NCI-H1299 [25]
  IC50: > 10000 nM
PLC [26]
  IC50: 300 to 1200 nM
MCF7 [27]
  IC50: 300 to 1200 nM
A549 [28]
  Activity: Active

## BISMUTH SUBCITRATE POTASSIUM
[1]
  inhibition: Active
[2]
  inhibition: inactive
